Tested on: KRAS G12V dependent lung adenocarcinoma cell line, NCI-H441
Test: Cellular pERK (Thr202/Tyr204) FRET/HTRF assay
Format: cell-based
Details: Homo sapiens
Procedure, shortened: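 Adherent NCI-H441 cells, plated the previous night, receive test compound for one hour at 37 °C. They are then lysed with a buffer containing phosphatase inhibitors and incubated at room temperature with Eu3+-cryptate and d2 labelled anti-pERK antibodies. HTRF signal gives IC50 by curve fitting.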

[1] = NCI-H441, cellular pERK (Thr202/Tyr204) HTRF, NCI-H441 cells
[2] = NCI-H441, pERK HTRF, NCI-H441 cells (KRAS G12V)

| SMILES | IC50 [1] [µM] | IC50 [2] [µM] |
| --- | --- | --- |
| C#Cc1c(F)ccc2cc(N)cc(-c3ncc4c(N5CCOC[C@H]6[C@H](F)[C@H]65)nc(OC[C@]56C[C@@]7(CN5CCC65CC5)CC7(F)F)nc4c3F)c12 (single isomer, unassigned) [Example 218] | < 0.05 |  |
| C#Cc1c(F)ccc2cc(N)cc(-c3ncc4c(N5CCOC[C@H]6[C@H](F)[C@H]65)nc(OC[C@]56C[C@]7(CN5CCC65CC5)CC7(F)F)nc4c3F)c12 (single isomer, unassigned) [Example 219] | < 0.05 |  |
| C#Cc1c(F)ccc2cc(N)cc(-c3ncc4c(N5CCOC[C@H]6[C@H](F)[C@H]65)nc(OC[C@]56C[C@]7(C[C@H]7F)CN5CCC65CC5)nc4c3F)c12 (single isomer, unassigned) [Example 231] | < 0.05 |  |
| C#Cc1c(F)ccc2cc(N)cc(-c3ncc4c(N5CCOC[C@H]6[C@H](F)[C@H]65)nc(OC[C@]56C[C@]7(C[C@@H]7F)CN5CCC65CC5)nc4c3F)c12 (single isomer, unassigned) [Example 232] | < 0.05 |  |
| C#Cc1c(F)ccc2cc(N)cc(-c3ncc4c(N5CCOC[C@H]6[C@H](F)[C@H]65)nc(OC[C@]56C[C@@]7(C[C@H]7F)CN5CCC65CC5)nc4c3F)c12 (single isomer, unassigned) [Example 233] | < 0.05 |  |
| C#Cc1c(F)ccc2cc(N)cc(-c3ncc4c(N5CCOC[C@H]6[C@H](F)[C@H]65)nc(OC[C@]56C[C@@]7(C[C@@H]7F)CN5CCC65CC5)nc4c3F)c12 (single isomer, unassigned) [Example 234] | < 0.05 |  |
| C#Cc1c(F)ccc2cc(N)cc(-c3ncc4c(N5CCOC[C@H]6[C@H](F)[C@H]65)nc(OC[C@]56C[C@@H](C)CN5CCC65CC5)nc4c3F)c12 (single isomer, unassigned) [Example 242] | < 0.05 |  |
| C#Cc1c(F)ccc2cc(N)cc(-c3ncc4c(N5CCOC[C@H]6[C@H](F)[C@H]65)nc(OC[C@@]56C[C@H](C)CN5CCC65CC5)nc4c3F)c12 (single isomer, unassigned) [Example 243] | < 0.05 |  |
| [2H]C1([2H])CC[C@@]2(C([2H])([2H])Oc3nc(N4CCOC[C@H]5[C@H](F)[C@H]54)c4cnc(-c5cc(N)cc6ccc(F)c(C#C)c56)c(F)c4n3)C[C@@]3(C[C@H]3F)CN12 (single isomer, unassigned) [Example 274] | < 0.05 |  |
| [2H]C1([2H])CC[C@@]2(C([2H])([2H])Oc3nc(N4CCOC[C@H]5[C@H](F)[C@H]54)c4cnc(-c5cc(N)cc6ccc(F)c(C#C)c56)c(F)c4n3)C[C@@]3(C[C@@H]3F)CN12 (single isomer, unassigned) [Example 275] | < 0.05 |  |
| [2H]C([2H])(Oc1nc(N2CCOC[C@H]3[C@H](F)[C@H]32)c2cnc(-c3cc(N)cc4ccc(F)c(C#C)c34)c(F)c2n1)[C@@]12CCCN1C[C@]1(C[C@H]1F)C2 (single isomer, unassigned) [Example 312] | < 0.05 |  |
| [2H]C([2H])(Oc1nc(N2CCOC[C@H]3[C@H](F)[C@H]32)c2cnc(-c3cc(N)cc4ccc(F)c(C#C)c34)c(F)c2n1)[C@@]12CCCN1C[C@]1(C[C@@H]1F)C2 (single isomer, unassigned) [Example 313] | < 0.05 |  |
| [2H]C([2H])(Oc1nc(N2CCOC[C@H]3[C@H](F)[C@H]32)c2cnc(-c3cc(N)cc4ccc(F)c(C#C)c34)c(F)c2n1)[C@@]12CCCN1C[C@@H](CC#N)C2 (single isomer, unassigned) [Example 314] | < 0.05 |  |
| [2H]C([2H])(Oc1nc(N2CCOC[C@H]3[C@H](F)[C@H]32)c2cnc(-c3cc(N)cc4ccc(F)c(C#C)c34)c(F)c2n1)[C@@]12CCCN1C[C@H](CC#N)C2 (single isomer, unassigned) [Example 315] | < 0.05 |  |
| [2H]C([2H])(Oc1nc(N2CCOC[C@@H]3C(F)[C@@H]32)c2cc(F)c(-c3cc(N)cc(C)c3C(F)(F)F)c(F)c2n1)[C@@]12CCCN1C[C@H](F)C2 (stereo in doubt) [Example 170, 3-(6,8-difluoro-4-((1R,7R,8R)-8-fluoro-5-oxa-2-azabicyclo[5.1.0]octan-2-yl)-2-(((2R,7aS)-2-fluorotetrahydro-1H-pyrrolizin-7a(5H)-yl)methoxy-d2)quinazolin-7-yl)-5-methyl-4-(trifluoromethyl)aniline] | 0.5 to 10 |  |
| [2H]C([2H])(Oc1nc(N2CC[C@H](C#N)C[C@@H]3[C@H](F)[C@@H]32)c2cnc(-c3cc(N)cc4ccc(F)c(C#C)c34)c(F)c2n1)[C@@]12CCCN1C[C@H](F)C2 (stereo in doubt) [Example 309, (1R,SR,7S,8S)-2-(7-(3-amino-8-ethynyl-7-fluoronaphthalen-1-yl)-8-fluoro-2-(((2R,7aS)-2-fluorotetrahydro-1H-pyrrolizin-7a(5H)-yl)methoxy-d2)pyrido[4,3-d]pyrimidin-4-yl)-8-fluoro-2-azabicyclo[5.1.0]octane-5-carbonitrile] | 0.05 to 0.5 |  |
| C#Cc1c(F)ccc2cc(O)cc(-c3ncc4c(N5CCCC[C@@H]6C[C@@H]65)nc(OC[C@@]56CCCN5C[C@H](F)C6)nc4c3F)c12 [Example 1, 4-(4-((1S,7R)-2-Azabicyclo[5.1.0]octan-2-yl)-8-fluoro-2-(((2R,7aS)-2-fluorotetrahydro-1H-pyrrolizin-7a(5H)-yl)methoxy)pyrido[4,3-d]pyrimidin-7-yl)-5-ethynyl-6-fluoronaphthalen-2-ol] |  | 0.5 to 10 |
| C#Cc1c(F)ccc2cc(O)cc(-c3ncc4c(N5CCCC[C@H]6C[C@H]65)nc(OC[C@@]56CCCN5C[C@H](F)C6)nc4c3F)c12 [Example 2, 4-(4-((1R,7S)-2-azabicyclo[5.1.0]octan-2-yl)-8-fluoro-2-(((2R,7aS)-2-fluorotetrahydro-1H-pyrrolizin-7a(5H)-yl)methoxy)pyrido[4,3-d]pyrimidin-7-yl)-5-ethynyl-6-fluoronaphthalen-2-ol] |  | < 0.05 |
| C#Cc1c(F)ccc2cc(O)cc(-c3ncc4c(N5CCC6CC6CC5)nc(OC[C@@]56CCCN5C[C@H](F)C6)nc4c3F)c12 (stereo partly drawn) [Example 3, 4-(4-(4-Azabicyclo[5.1.0]octan-4-yl)-8-fluoro-2-(((2R,7aS)-2-fluorotetrahydro-1H-pyrrolizin-7a(5H)-yl)methoxy)pyrido[4,3-d]pyrimidin-7-yl)-5-ethynyl-6-fluoronaphthalen-2-ol] |  | < 0.05 |
| C#Cc1c(F)ccc2cc(N)cc(-c3ncc4c(N5CCCC[C@@H]6C[C@@H]65)nc(OC[C@@]56CCCN5C[C@H](F)C6)nc4c3F)c12 [Example 4, 4-(4-((1S,7R)-2-azabicyclo[5.1.0]octan-2-yl)-8-fluoro-2-(((2R,7aS)-2-fluorotetrahydro-1H-pyrrolizin-7a(5H)-yl)methoxy)pyrido[4,3-d]pyrimidin-7-yl)-5-ethynyl-6-fluoronaphthalen-2-amine] |  | 0.5 to 10 |

The remaining lines, values ahead:

| IC50 [1] [µM] | IC50 [2] [µM] | SMILES |
| --- | --- | --- |
| < 0.05 |  | [2H]C([2H])(F)Oc1c(F)ccc2cc(N)cc(-c3ncc4c(N5CCOC[C@H]6[C@H](F)[C@H]65)nc(OC[C@@]56CCCN5C[C@H](C)C6)nc4c3F)c12 (single isomer, unassigned) [Example 215] |
| < 0.05 |  | [2H]C([2H])(F)Oc1c(F)ccc2cc(N)cc(-c3ncc4c(N5CCOC[C@H]6[C@H](F)[C@H]65)nc(OC[C@@]56CCCN5C[C@@]5(CC5(F)F)C6)nc4c3F)c12 (single isomer, unassigned) [Example 229] |
| < 0.05 |  | [2H]C([2H])(F)Oc1c(F)ccc2cc(N)cc(-c3ncc4c(N5CCOC[C@H]6[C@H](F)[C@H]65)nc(OC[C@@]56CCCN5C[C@]5(CC5(F)F)C6)nc4c3F)c12 (single isomer, unassigned) [Example 230] |
| < 0.05 |  | [2H]C([2H])(Oc1nc(N2CCOC[C@H]3[C@H](F)[C@H]32)c2cnc(-c3cc(N)cc4ccc(F)c(C#C)c34)c(F)c2n1)[C@@]12CCCN1C[C@@H](Cl)C2 (single isomer, unassigned) [Example 237] |
| < 0.05 |  | [2H]C([2H])(Oc1nc(N2CCOC[C@H]3[C@H](F)[C@H]32)c2cnc(-c3cc(N)cc4ccc(F)c(C#C)c34)c(F)c2n1)[C@@]12CCCN1C[C@H](Cl)C2 (single isomer, unassigned) [Example 238] |
| < 0.05 |  | C#Cc1c(F)ccc2cc(N)cc(-c3ncc4c(N5CCOC[C@H]6[C@H](F)[C@H]65)nc(OC[C@]56C[C@H](C)CN5CCC65CC5)nc4c3F)c12 (single isomer, unassigned) [Example 251] |
| < 0.05 |  | C#Cc1c(F)ccc2cc(N)cc(-c3ncc4c(N5CCOC[C@H]6[C@H](F)[C@H]65)nc(OC[C@@]56CCCN5C[C@@]5(C[C@@H]5F)C6)nc4c3F)c12 (single isomer, unassigned) [Example 252] |
| < 0.05 |  | C#Cc1c(F)ccc2cc(N)cc(-c3ncc4c(N5CCOC[C@H]6[C@H](F)[C@H]65)nc(OC[C@@]56CCCN5C[C@@]5(C[C@H]5F)C6)nc4c3F)c12 (single isomer, unassigned) [Example 253] |
| < 0.05 |  | C#Cc1c(F)ccc2cc(N)cc(-c3ncc4c(N5CCOC[C@H]6[C@H](F)[C@H]65)nc(OC[C@@]56CCCN5C[C@]5(C[C@H]5F)C6)nc4c3F)c12 (single isomer, unassigned) [Example 254] |
| < 0.05 |  | C#Cc1c(F)ccc2cc(N)cc(-c3ncc4c(N5CCOC[C@H]6[C@H](F)[C@H]65)nc(OC[C@@]56CCCN5C[C@]5(C[C@@H]5F)C6)nc4c3F)c12 (single isomer, unassigned) [Example 255] |
| < 0.05 |  | [2H]C([2H])(Oc1nc(N2CCOC[C@H]3[C@H](F)[C@H]32)c2cnc(-c3cc(N)cc4ccc(F)c(C#C)c34)c(F)c2n1)[C@@]12CCCN1C[C@@H](CF)C2 (single isomer, unassigned) [Example 265] |
| < 0.05 |  | [2H]C([2H])(Oc1nc(N2CCOC[C@H]3[C@H](F)[C@H]32)c2cnc(-c3cc(N)cc4ccc(F)c(C#C)c34)c(F)c2n1)[C@@]12CCCN1C[C@H](CF)C2 (single isomer, unassigned) [Example 266] |

Reference: US20250282799A1, “SUBSTITUTED PYRIDO[4,3-d]PYRIMIDINES AS KRAS MODULATORS” (Alterome Therapeutics, Inc., priority 2023, published 2025)
